ChEMBL document CHEMBL5214947, “Photoprotective effect of 18β-glycyrrhetinic acid derivatives against ultra violet (UV)-B-Induced skin aging” (Bioorg Med Chem Lett, 2022)
Activity calls are given as the source filed them. The rule behind the calls is not given here.

What was measured:
[1] = system: NHDF; assay: Cytotoxicity against human HDF cells assessed as reduction in cell viability at 10 uM incubated for 24 hrs by MTT assay; type: toxicity, cell-based
[2] = system: NHDF; assay: Cytoprotective activity against human HDF cells assessed as increase in cell viability at 10 uM incubated for 24 hrs by MTT assay; type: functional
[3] = system: NHDF; assay: Cytoprotective activity against UV-B irradiation induced human HDF cells assessed as increase in cell viability at 25 uM incubated for 24 hrs by MTT assay; type: functional
[4] = system: NHDF; assay: Cytoprotective activity against UV-B irradiation induced human HDF cells assessed as increase in cell viability at 10 uM incubated for 24 hrs by MTT assay; type: functional
[5] = system: NHDF; assay: Antiapoptotic activity in UV-B irradiation induced human HDF cells assessed as upregulation of catalase expression level at 50 uM incubated for 24 hrs by western blot analysis; type: functional, cell-based
[6] = system: NHDF; assay: Antioxidant activity in UV-B irradiation induced human HDF cells assessed as decrease in ROS level at 10 to 25 uM incubated for 6 hrs by fluorescence microscopy; type: functional, cell-based; details: dose 10-25 µM, DDE = dose-dependent effect
[7] = system: NHDF; assay: Antiapoptotic activity in UV-B irradiation induced human HDF cells assessed as upregulation of catalase expression level at 10 to 25 uM incubated for 24 hrs by western blot analysis; type: functional, cell-based; details: dose 10-25 µM
[8] = system: NHDF; assay: Antiapoptotic activity in UV-B irradiation induced human HDF cells assessed as downregulation of MMP1 expression level at 10 to 25 uM incubated for 24 hrs by western blot analysis; type: functional, cell-based; details: dose 10-25 µM
[9] = system: NHDF; assay: Antiapoptotic activity in UV-B irradiation induced human HDF cells assessed as upregulation of procollagen-1 expression level at 10 to 25 uM incubated for 24 hrs by western blot analysis; type: functional, cell-based; details: dose 10-25 µM
[10] = system: NHDF; assay: Antiapoptotic activity in UV-B irradiation induced human HDF cells assessed as decrease in mitochondrial membrane potential loss at 10 to 25 uM incubated for 24 hrs by JC-9 staining fluorescence microscopy; type: functional, cell-based; details: dose 10-25 µM, DDE = dose-dependent effect
[11] = system: NHDF; assay: Antioxidant activity in UV-B irradiation induced human HDF cells assessed as decrease in ROS level at 25 uM incubated for 6 hrs by fluorescence microscopy; type: functional, cell-based

Compound `CC1(C)[C@@H](O)/C(=C/c2ccccc2)C[C@]2(C)[C@H]3C(=O)C=C4[C@@H]5C[C@@](C)(C(=O)O)CC[C@]5(C)CC[C@@]4(C)[C@]3(C)CC[C@@H]12` has an Activity [1] of 7.4%.

In the case of `CSc1ccc(/C=C2\C[C@]3(C)[C@H]4C(=O)C=C5[C@@H]6C[C@@](C)(C(=O)O)CC[C@]6(C)CC[C@@]5(C)[C@]4(C)CC[C@H]3C(C)(C)[C@H]2O)cc1`, the Activity [2] is reported as 109.5% and the Activity [3] is reported as 12%.

For `CC1(C)C(=O)/C(=C/c2cccc(F)c2)C[C@]2(C)[C@H]3C(=O)C=C4[C@@H]5C[C@@](C)(C(=O)O)CC[C@]5(C)CC[C@@]4(C)[C@]3(C)CC[C@@H]12`, the Activity [1] was 6.5%.

Work on `CCc1ccc(/C=C2\C[C@]3(C)[C@H]4C(=O)C=C5[C@@H]6C[C@@](C)(C(=O)O)CC[C@]6(C)CC[C@@]5(C)[C@]4(C)CC[C@H]3C(C)(C)[C@H]2O)cc1` yielded an Activity [2] of 114.5%.

Compound `CCOc1cccc(/C=C2\C[C@]3(C)[C@H]4C(=O)C=C5[C@@H]6C[C@@](C)(C(=O)O)CC[C@]6(C)CC[C@@]5(C)[C@]4(C)CC[C@H]3C(C)(C)[C@H]2O)c1` has an Activity [2] of 100.1%.

`CC1(C)[C@@H](O)/C(=C/c2cccc(F)c2)C[C@]2(C)[C@H]3C(=O)C=C4[C@@H]5C[C@@](C)(C(=O)O)CC[C@]5(C)CC[C@@]4(C)[C@]3(C)CC[C@@H]12` was tested, and the Activity [1] was 4.4%.

`COc1ccc(/C=C2\C[C@]3(C)[C@H]4C(=O)C=C5[C@@H]6C[C@@](C)(C(=O)O)CC[C@]6(C)CC[C@@]5(C)[C@]4(C)CC[C@H]3C(C)(C)C2=O)c(Br)c1O` showed an Activity [1] of 10%.

`Cc1ccc(/C=C2\C[C@]3(C)[C@H]4C(=O)C=C5[C@@H]6C[C@@](C)(C(=O)O)CC[C@]6(C)CC[C@@]5(C)[C@]4(C)CC[C@H]3C(C)(C)C2=O)cc1` showed an Activity [1] of 30.5%.

`COc1ccc(/C=C2\C[C@]3(C)[C@H]4C(=O)C=C5[C@@H]6C[C@@](C)(C(=O)O)CC[C@]6(C)CC[C@@]5(C)[C@]4(C)CC[C@H]3C(C)(C)[C@H]2O)cc1` gave an Activity [2] of 112.5%.

In the case of `CC1(C)C(=O)/C(=C/c2ccncc2)C[C@]2(C)[C@H]3C(=O)C=C4[C@@H]5C[C@@](C)(C(=O)O)CC[C@]5(C)CC[C@@]4(C)[C@]3(C)CC[C@@H]12`, the Activity [1] is reported as 8.3%.

`COc1cc(Br)c(/C=C2\C[C@]3(C)[C@H]4C(=O)C=C5[C@@H]6C[C@@](C)(C(=O)O)CC[C@]6(C)CC[C@@]5(C)[C@]4(C)CC[C@H]3C(C)(C)C2=O)cc1O` gave an Activity [2] of 104.7% and an Activity [4] of 3%.

`Cc1ccc(/C=C2\C[C@]3(C)[C@H]4C(=O)C=C5[C@@H]6C[C@@](C)(C(=O)O)CC[C@]6(C)CC[C@@]5(C)[C@]4(C)CC[C@H]3C(C)(C)[C@H]2O)s1` showed an Activity [2] of 101.1%.

For `CC1(C)[C@@H](O)/C(=C/c2ccc(Br)cc2)C[C@]2(C)[C@H]3C(=O)C=C4[C@@H]5C[C@@](C)(C(=O)O)CC[C@]5(C)CC[C@@]4(C)[C@]3(C)CC[C@@H]12`, the Activity [2] was 103.5%.

In the case of `CC1(C)[C@@H](O[C@H]2O[C@H](C(=O)O)[C@@H](O)[C@H](O)[C@H]2O[C@@H]2O[C@H](C(=O)O)[C@@H](O)[C@H](O)[C@H]2O)CC[C@]2(C)[C@H]3C(=O)C=C4[C@@H]5C[C@@](C)(C(=O)O)CC[C@]5(C)CC[C@@]4(C)[C@]3(C)CC[C@@H]12`, the Activity [5] is reported as “Active”.

`CCc1ccc(/C=C2\C[C@]3(C)[C@H]4C(=O)C=C5[C@@H]6C[C@@](C)(C(=O)O)CC[C@]6(C)CC[C@@]5(C)[C@]4(C)CC[C@H]3C(C)(C)C2=O)cc1` showed an Activity [1] of 28.8%.

`CC1(C)[C@@H](O)CC[C@]2(C)[C@H]3C(=O)C=C4[C@@H]5C[C@@](C)(C(=O)O)CC[C@]5(C)CC[C@@]4(C)[C@]3(C)CC[C@@H]12` [ENOXOLONE] was tested, and the Activity [2] was 106.4%, the Activity [4] was 1% and the Activity [3] was 17%.

Compound `COc1ccc(/C=C2\C[C@]3(C)[C@H]4C(=O)C=C5[C@@H]6C[C@@](C)(C(=O)O)CC[C@]6(C)CC[C@@]5(C)[C@]4(C)CC[C@H]3C(C)(C)[C@H]2O)c(Br)c1O` has an Activity [1] of 20.2%.

With `COc1ccc(/C=C2\C[C@]3(C)[C@H]4C(=O)C=C5[C@@H]6C[C@@](C)(C(=O)O)CC[C@]6(C)CC[C@@]5(C)[C@]4(C)CC[C@H]3C(C)(C)[C@H]2O)c(F)c1` the Activity [2] was 106.7%, the Activity [4] was 8.3% and the Activity [3] was 19.5%. For the same compound, the Activity [6] was “Dde”, the Activity [7] was “Active” and the Activity [8] was “Active”. The Activity [9] was “Active” and the Activity [10] was “Dde”.

`COc1ccccc1/C=C1\C[C@]2(C)[C@H]3C(=O)C=C4[C@@H]5C[C@@](C)(C(=O)O)CC[C@]5(C)CC[C@@]4(C)[C@]3(C)CC[C@H]2C(C)(C)C1=O` showed an Activity [1] of 5.9%.

For `COc1ccc(/C=C2\C[C@]3(C)[C@H]4C(=O)C=C5[C@@H]6C[C@@](C)(C(=O)O)CC[C@]6(C)CC[C@@]5(C)[C@]4(C)CC[C@H]3C(C)(C)C2=O)c(F)c1`, the Activity [1] was 19.1%.

With `COc1cc(Br)c(/C=C2\C[C@]3(C)[C@H]4C(=O)C=C5[C@@H]6C[C@@](C)(C(=O)O)CC[C@]6(C)CC[C@@]5(C)[C@]4(C)CC[C@H]3C(C)(C)[C@H]2O)cc1O` the Activity [1] was 10.3%.

`COc1ccccc1/C=C1\C[C@]2(C)[C@H]3C(=O)C=C4[C@@H]5C[C@@](C)(C(=O)O)CC[C@]5(C)CC[C@@]4(C)[C@]3(C)CC[C@H]2C(C)(C)[C@H]1O` gave an Activity [2] of 114.5% and an Activity [4] of 6%.

For `CC1(C)C(=O)/C(=C/c2cccc3ccccc23)C[C@]2(C)[C@H]3C(=O)C=C4[C@@H]5C[C@@](C)(C(=O)O)CC[C@]5(C)CC[C@@]4(C)[C@]3(C)CC[C@@H]12`, the Activity [1] was 11.5%.

`CC1(C)C(=O)CC[C@]2(C)[C@H]3C(=O)C=C4[C@@H]5C[C@@](C)(C(=O)O)CC[C@]5(C)CC[C@@]4(C)[C@]3(C)CC[C@@H]12` was tested, and the Activity [1] was 5.2%.

`CC1(C)C(=O)/C(=C/c2ccccc2)C[C@]2(C)[C@H]3C(=O)C=C4[C@@H]5C[C@@](C)(C(=O)O)CC[C@]5(C)CC[C@@]4(C)[C@]3(C)CC[C@@H]12` was tested, and the Activity [1] was 11.5%.

`CC1(C)[C@@H](O)/C(=C/c2ccncc2)C[C@]2(C)[C@H]3C(=O)C=C4[C@@H]5C[C@@](C)(C(=O)O)CC[C@]5(C)CC[C@@]4(C)[C@]3(C)CC[C@@H]12` showed an Activity [1] of 3.2%.

Work on `CCOc1cccc(/C=C2\C[C@]3(C)[C@H]4C(=O)C=C5[C@@H]6C[C@@](C)(C(=O)O)CC[C@]6(C)CC[C@@]5(C)[C@]4(C)CC[C@H]3C(C)(C)C2=O)c1` yielded an Activity [1] of 35.7%.

`CC1(C)[C@@H](O)/C(=C/c2cccc3ccccc23)C[C@]2(C)[C@H]3C(=O)C=C4[C@@H]5C[C@@](C)(C(=O)O)CC[C@]5(C)CC[C@@]4(C)[C@]3(C)CC[C@@H]12` gave an Activity [2] of 110.1%.

In the case of `O=C1O[C@H]([C@@H](O)CO)C(O)=C1O`, the Activity [11] is reported as “Active”.

For `COc1ccc(/C=C2\C[C@]3(C)[C@H]4C(=O)C=C5[C@@H]6C[C@@](C)(C(=O)O)CC[C@]6(C)CC[C@@]5(C)[C@]4(C)CC[C@H]3C(C)(C)C2=O)cc1`, the Activity [1] was 11.5%.

Work on `Cc1ccc(/C=C2\C[C@]3(C)[C@H]4C(=O)C=C5[C@@H]6C[C@@](C)(C(=O)O)CC[C@]6(C)CC[C@@]5(C)[C@]4(C)CC[C@H]3C(C)(C)C2=O)s1` yielded an Activity [1] of 12.2%.

With `CC1(C)C(=O)/C(=C/c2ccc(Br)cc2)C[C@]2(C)[C@H]3C(=O)C=C4[C@@H]5C[C@@](C)(C(=O)O)CC[C@]5(C)CC[C@@]4(C)[C@]3(C)CC[C@@H]12` the Activity [1] was 17.5%.

With `CSc1ccc(/C=C2\C[C@]3(C)[C@H]4C(=O)C=C5[C@@H]6C[C@@](C)(C(=O)O)CC[C@]6(C)CC[C@@]5(C)[C@]4(C)CC[C@H]3C(C)(C)C2=O)cc1` the Activity [1] was 8.4%.

With `CC1(C)C(=O)/C(=C/c2ccc(Cl)cc2)C[C@]2(C)[C@H]3C(=O)C=C4[C@@H]5C[C@@](C)(C(=O)O)CC[C@]5(C)CC[C@@]4(C)[C@]3(C)CC[C@@H]12` the Activity [2] was 113.9%.
